# Measured values reported in US6932975B2, “Cosmetic composition comprising a phosphoric triester and a skin activating component” (Kao Corporation, priority 1997, dated 2005).
# Test system: horny layer of the lower inner arm
# Assay: Retention of moisturizing effect: water content in the horny layer by impedance meter (Example 2)
# Type: in vivo, human
# Settings: 20° C., humidity 30%, average N=10; for Retention of moisturizing effect (water content in the horny layer), After 3 hr.: after additional 3 hours, washed with hot water again; for Retention of moisturizing effect (water content in the horny layer), After 15 min.: applied 1 hour, washed off with hot water, 15 minutes after
# Experimental: Cosmetics of their corresponding formulations shown in Table 7 were prepared to determine the retention of their moisturizing effects.
# A fixed amount of each of the above samples was applied to the lower inner arm of a volunteer and washed off with hot water after left at rest for 1 hour. The volunteer was got to enter an air-conditioned room kept at a temperature of 20° C. and a humidity of 30%. Fifteen minutes after that, the water content in the horny layer of the volunteer was measured by an impedance meter (manufactured by IBS Company). After additional 3 hours, the treated arm was washed with hot water again. Fifty minutes after that, the water content was measured in the same manner as described above. The values shown in the table were average values (N=10).
Compound,"Retention of moisturizing effect (water content in the horny layer), After 3 hr. [μΩ^−1]","Retention of moisturizing effect (water content in the horny layer), After 15 min. [μΩ^−1]"
"CCCCOCCOP(=O)(OCCOCCCC)OCCOCCCC [Comparative product 9, Tris(butoxyethyl) phosphate]",40,70
"OCC(O)CO [Comparative product 11, Glycerol]",45,75
"O [Comparative product 12, Purified water]",40,60
Bis(butoxyethoxyethyl)ethyl phosphate [Comparative product 8],40,70
